Article PMC8781390, “Inclusion Complexes of Rifampicin with Native and Derivatized Cyclodextrins: In Silico Modeling, Formulation, and Characterization” (Pharmaceuticals, 2021)
Values after ≈ are worked out from the molar mass of the structure shown. Like-named read-outs stand apart in the source and are kept apart here.

Key:
[1] = Phase solubility analysis of RIF with cyclodextrins (binding constant, complexation efficiency); format: physicochemical
Method: Phase solubility analysis was carried out similarly to the saturation solubility studies by using a range of concentrations of CDs in buffered solutions at different pH vales. […] Solubility of each drug was determined and plotted in a graph with the nominal concentration of cyclodextrin on the x-axis and the nominal concentration of RIF on the y-axis.
In order to determine the binding strength of CD and RIF, the binding constant (Ks) was calculated based on the phase diagram of solubility studies. […] (1) Ks=[RIF−CD]/[RIF]free·[CD]free CD+RIF↔KsCD−RIF where [RIF − CD], [RIF]free, and [CD]free are concentration of the RIF-CD complexes, free RIF, and free CD, respectively.
[RIF]free can be considered as RIF initial solubility (S0), therefore Equation (2) becomes:(2) Ks=[RIF−CD]/S0·[CD]free
The phase solubility diagram was constructed by plotting the RIF molar concentration on the y-axis and the CD molar concentration on the x-axis. […] (3) Ks=slope/S0·(1−slope)
The complexation efficiency (CE) was determined by using the slope of the phase solubility diagram according to Equation (4). (4) CE=[CD−RIF]/[CD]free=S0·Ks=slope/1−slope
Based on CE determination, the CD molar ratio was calculated using Equation (5). (5) Drug :CD molar ratio=1 : (CE+1)/CE

[2] = system: Staphylococcus aureus (NCTC 10788); assay: MIC by broth microdilution; format: cell-based; conditions: Staphylococcus aureus NCTC 10788, 37 °C
Method: (§1) The minimum inhibitory concentration (MIC) of pure RIF and RIF-CD complexes was determined against both Staphylococcus aureus (NCTC® 10788) and methicillin-resistant Staphylococcus aureus (MRSA) (ATCC® 33593™) using the broth microdilution method. Briefly, inclusion complexes of RIF-CD were separately dissolved in sterile distilled water and diluted with Mueller–Hinton broth (MHB) to obtain a series of culture media containing different RIF concentrations ranging from 50 to 0.78 µg/mL. Solutions and suspensions of pure RIF were prepared by adding the pure RIF in methanol and in sterile distilled water, respectively, and then diluted with MHB to achieve the same concentration as for the RIF-CD inclusion complexes. Culture media in the microplates were inoculated with 100 µL of each bacterial suspension to achieve a final bacterial concentration of 2.0 × 10^5 CFU/mL. Pure MHB inoculated with the different bacterial strains was included as a positive control. The inoculated culture media were then incubated at 37 °C for 24 h. The MIC was determined as the lowest concentration of pure RIF and RIF-CD inclusion complexes where no visible bacterial growth was detected.

[3] = system: Methicillin-resistant Staphylococcus aureus (MRSA) (ATCC 33593); assay: MIC by broth microdilution; format: cell-based; conditions: 24 h, MRSA ATCC 33593, 37 °C
Method: as §1

[4] = In vitro release / dissolution study; format: physicochemical; conditions: all studied release media (pH 1.2, 6.8, 7.4), 37 °C
Method: In vitro release profiles for pure RIF and RIF-CD inclusion complexes were evaluated […]. Simulated gastric fluid (pH 1.2), simulated intestinal fluid (pH 6.8), and PBS (pH 7.4) were prepared as the release media in this study and used to mimic biological conditions in the human body. All samples were added into Eppendorf tubes containing 2 mL of the release media and were then placed in an incubator at 37 °C with shaking at 40 rpm. Sampling was carried out at 1, 2, 3, 4, 5, 6, 7, 8, and 24 h by taking 200 µL of each sample, transferring them to HPLC vials containing glass inserts, and replacing the sample with 200 µL of fresh release media. The samples were analyzed using a validated HPLC method.
The HPLC method for RIF quantification was adapted from our previous work. HPLC Agilent 1220 Series (Agilent Technologies, UK Ltd., Stockport, UK) was used to analyze all the samples. Isocratic separation was achieved using a Phenomenex® Luna C18 (ODS1) column (150 × 4.6 mm internal diameter, 5 µm packing) (Phenomenex, Cheshire, UK). The injection volume was 50 µL and the analysis was carried out at room temperature with a flow rate of 1 mL/min. […] RIF was detected by a UV at 334 nm. All chromatograms were analyzed using the Agilent ChemStation® Software B.02.01.

[5] = Saturation solubility of RIF in buffered solutions; format: physicochemical; conditions: buffered solution
Method: Solubility studies were performed to assess RIF solubility in a range of buffers (pH 4.0, pH 7.0, and pH 9.0). For this purpose, an excess amount of RIF was added to 3 mL of adjusted buffered solutions in a glass vial. Suspensions were stirred at 100 rpm in a shaker incubator (Jeio Tech ISF-7100, Medline Scientific, Chalgrove Oxon, UK) at 37 °C for 24 h. Samples were then filtered using 0.2 μm syringe filters (Minisart®, Sartorius Stedim Biotech, Goeltingen, Germany). All samples were diluted appropriately and analyzed using the validated HPLC method described in Section 2.10.
The HPLC method for RIF quantification was adapted from our previous work. HPLC Agilent 1220 Series (Agilent Technologies, UK Ltd., Stockport, UK) was used to analyze all the samples. Isocratic separation was achieved using a Phenomenex® Luna C18 (ODS1) column (150 × 4.6 mm internal diameter, 5 µm packing) (Phenomenex, Cheshire, UK). The injection volume was 50 µL and the analysis was carried out at room temperature with a flow rate of 1 mL/min. The mobile phase was a mixture of 25 mM sodium dihydrogen phosphate buffer (with 1% triethylamine and adjusted using phosphoric acid at pH 6.8) and methanol (ratio 30:70 v/v). RIF was detected by a UV at 334 nm. All chromatograms were analyzed using the Agilent ChemStation® Software B.02.01.

[6] = set-up: method as in earlier work; conditions: in humans; cited from earlier work

Compound	CE (complexation efficiency) ([1]; pH 4.0)	Ks (binding constant) ([1]; pH 4.0, RIF-CD 1:1 complex) [M⁻¹]	CE (complexation efficiency) ([1]; pH 7.0)	Ks (binding constant) ([1]; pH 7.0, RIF-CD 1:1 complex) [M⁻¹]	other results
hydroxypropyl-βCD [HP-βCD]	0.20	541	0.92	848	CE (complexation efficiency) ([1]; pH 9.0): 1.12; Ks (binding constant) ([1]; pH 9.0, RIF-CD 1:1 complex): 649 M⁻¹
OC[C@H]1O[C@@H]2O[C@H]3[C@H](O)[C@@H](O)[C@@H](O[C@H]4[C@H](O)[C@@H](O)[C@@H](O[C@H]5[C@H](O)[C@@H](O)[C@@H](O[C@H]6[C@H](O)[C@@H](O)[C@@H](O[C@H]7[C@H](O)[C@@H](O)[C@@H](O[C@H]8[C@H](O)[C@@H](O)[C@@H](O[C@H]9[C@H](O)[C@@H](O)[C@@H](O[C@H]1[C@H](O)[C@H]2O)O[C@@H]9CO)O[C@@H]8CO)O[C@@H]7CO)O[C@@H]6CO)O[C@@H]5CO)O[C@@H]4CO)O[C@@H]3CO [γCD]	0.80	–	1.22	1284	–
CO[C@H]1/C=C/O[C@@]2(C)Oc3c(C)c(O)c4c(O)c(c(/C=N/N5CCN(C)CC5)c(O)c4c3C2=O)NC(=O)/C(C)=C\C=C\[C@H](C)[C@H](O)[C@@H](C)[C@@H](O)[C@@H](C)[C@H](OC(C)=O)[C@@H]1C [Pure RIF (solution), Rifampicin]	–	–	–	–	MIC ([2]; Staphylococcus aureus, NCTC10788, 24 h, n = 3, read-out: MIC): 0.78 µg/mL (≈ 0.948 µM); MIC ([3]; Staphylococcus aureus, n = 3, read-out: MIC): 0.78 µg/mL (≈ 0.948 µM)
CO[C@H]1/C=C/O[C@@]2(C)Oc3c(C)c(O)c4c(O)c(c(/C=N/N5CCN(C)CC5)c(O)c4c3C2=O)NC(=O)/C(C)=C\C=C\[C@H](C)[C@H](O)[C@@H](C)[C@@H](O)[C@@H](C)[C@H](OC(C)=O)[C@@H]1C [RIF, Rifampicin]	–	–	–	–	RIF released in 2 h [4]: less than 10%; solubility at 24 h ([5]; aqueous buffer, thermodynamic from solid, buffer pH 7.0, 37 °C): 870 µg/mL (≈ 1060 µM); solubility at 24 h ([5]; buffer pH 4.0, 37 °C): 310 µg/mL (≈ 377 µM); solubility at 24 h ([5]; buffer pH 9.0, 37 °C): 1400 µg/mL (≈ 1700 µM); oral bioavailability [6]: approximately 68%
OC[C@H]1O[C@@H]2O[C@H]3[C@H](O)[C@@H](O)[C@@H](O[C@H]4[C@H](O)[C@@H](O)[C@@H](O[C@H]5[C@H](O)[C@@H](O)[C@@H](O[C@H]6[C@H](O)[C@@H](O)[C@@H](O[C@H]7[C@H](O)[C@@H](O)[C@@H](O[C@H]8[C@H](O)[C@@H](O)[C@@H](O[C@H]1[C@H](O)[C@H]2O)O[C@@H]8CO)O[C@@H]7CO)O[C@@H]6CO)O[C@@H]5CO)O[C@@H]4CO)O[C@@H]3CO [βCD]	0.09	215	0.29	250	–
CO[C@H]1/C=C/O[C@@]2(C)Oc3c(C)c(O)c4c(O)c(c(/C=N/N5CCN(C)CC5)c(O)c4c3C2=O)NC(=O)/C(C)=C\C=C\[C@H](C)[C@H](O)[C@@H](C)[C@@H](O)[C@@H](C)[C@H](OC(C)=O)[C@@H]1C [Pure RIF (suspension), Rifampicin]	–	–	–	–	MIC ([2]; 24 h, n = 3): 1.56 µg/mL (≈ 1.9 µM); MIC ([3]; n = 3): 1.56 µg/mL (≈ 1.9 µM)
